Assay results taken from ChEMBL document CHEMBL1201862, “PubChem BioAssay data set” (2004).
Active and inactive are the calls of the source.

What was measured:
P388/ADR = test: cells; assay type: functional; conditions: Mus musculus
SN12K1 = test: cells; assay type: functional; conditions: Homo sapiens
P388 = test: cells; assay type: functional; conditions: Mus musculus
Caspase-3 = biological target: T1, Caspase-3 (Homo sapiens, UniProt P42574); assay type: functional;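 also: Dose-response selectivity test against caspase-3 for candidate inhibitors of sentrin-specific proteases (SENPs)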
T1 sequence (P42574 whole entry): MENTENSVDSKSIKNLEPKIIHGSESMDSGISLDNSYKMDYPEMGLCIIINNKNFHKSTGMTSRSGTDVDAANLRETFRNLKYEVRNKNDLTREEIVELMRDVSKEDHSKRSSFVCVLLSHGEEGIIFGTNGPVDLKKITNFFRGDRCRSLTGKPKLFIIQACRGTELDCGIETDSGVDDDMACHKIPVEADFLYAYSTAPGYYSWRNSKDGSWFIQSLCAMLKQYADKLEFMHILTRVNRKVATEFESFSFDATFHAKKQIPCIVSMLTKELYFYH

[1] = biological target: T2, Sentrin-specific protease 7 (Homo sapiens, UniProt Q9BQF6); assay type: functional;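 also: Luminescence-based dose-response confirmation of ultra-high-throughput screening hits, measuring inhibition of SENP7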
T2 sequence (Q9BQF6 whole entry): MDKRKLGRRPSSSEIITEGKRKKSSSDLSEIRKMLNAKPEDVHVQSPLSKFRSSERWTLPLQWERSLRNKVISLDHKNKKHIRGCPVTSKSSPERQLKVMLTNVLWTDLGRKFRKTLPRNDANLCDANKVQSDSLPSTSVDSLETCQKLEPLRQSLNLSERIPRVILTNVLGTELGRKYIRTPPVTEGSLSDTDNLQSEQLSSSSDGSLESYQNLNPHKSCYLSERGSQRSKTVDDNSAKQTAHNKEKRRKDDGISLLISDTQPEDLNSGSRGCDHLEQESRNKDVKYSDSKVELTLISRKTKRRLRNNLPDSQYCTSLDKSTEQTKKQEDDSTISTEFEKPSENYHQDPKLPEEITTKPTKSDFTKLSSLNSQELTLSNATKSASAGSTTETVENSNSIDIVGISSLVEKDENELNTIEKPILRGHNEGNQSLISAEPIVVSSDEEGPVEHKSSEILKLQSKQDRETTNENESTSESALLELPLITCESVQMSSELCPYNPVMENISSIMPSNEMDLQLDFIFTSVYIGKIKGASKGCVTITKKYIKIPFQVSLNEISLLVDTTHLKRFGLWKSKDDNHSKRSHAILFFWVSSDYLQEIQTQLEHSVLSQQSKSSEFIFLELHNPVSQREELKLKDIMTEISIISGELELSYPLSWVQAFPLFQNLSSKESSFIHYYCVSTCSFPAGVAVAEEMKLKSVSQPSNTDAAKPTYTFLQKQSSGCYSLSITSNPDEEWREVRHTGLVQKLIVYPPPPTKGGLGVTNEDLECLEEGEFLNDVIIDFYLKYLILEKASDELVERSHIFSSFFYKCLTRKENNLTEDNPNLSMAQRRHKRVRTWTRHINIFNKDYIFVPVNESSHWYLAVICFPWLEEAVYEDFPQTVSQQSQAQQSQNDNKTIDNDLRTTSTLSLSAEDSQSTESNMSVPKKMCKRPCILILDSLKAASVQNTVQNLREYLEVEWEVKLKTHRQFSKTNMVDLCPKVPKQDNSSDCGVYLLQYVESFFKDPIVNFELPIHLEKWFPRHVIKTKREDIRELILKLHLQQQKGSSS

[2] = biological target: T3, Sentrin-specific protease 6 (Homo sapiens, UniProt Q9GZR1); assay type: functional;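 also: Luminescence-based dose-response confirmatory assay of SENP6 inhibition, following up an ultra-high-throughput screen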
T3 sequence (Q9GZR1 whole entry): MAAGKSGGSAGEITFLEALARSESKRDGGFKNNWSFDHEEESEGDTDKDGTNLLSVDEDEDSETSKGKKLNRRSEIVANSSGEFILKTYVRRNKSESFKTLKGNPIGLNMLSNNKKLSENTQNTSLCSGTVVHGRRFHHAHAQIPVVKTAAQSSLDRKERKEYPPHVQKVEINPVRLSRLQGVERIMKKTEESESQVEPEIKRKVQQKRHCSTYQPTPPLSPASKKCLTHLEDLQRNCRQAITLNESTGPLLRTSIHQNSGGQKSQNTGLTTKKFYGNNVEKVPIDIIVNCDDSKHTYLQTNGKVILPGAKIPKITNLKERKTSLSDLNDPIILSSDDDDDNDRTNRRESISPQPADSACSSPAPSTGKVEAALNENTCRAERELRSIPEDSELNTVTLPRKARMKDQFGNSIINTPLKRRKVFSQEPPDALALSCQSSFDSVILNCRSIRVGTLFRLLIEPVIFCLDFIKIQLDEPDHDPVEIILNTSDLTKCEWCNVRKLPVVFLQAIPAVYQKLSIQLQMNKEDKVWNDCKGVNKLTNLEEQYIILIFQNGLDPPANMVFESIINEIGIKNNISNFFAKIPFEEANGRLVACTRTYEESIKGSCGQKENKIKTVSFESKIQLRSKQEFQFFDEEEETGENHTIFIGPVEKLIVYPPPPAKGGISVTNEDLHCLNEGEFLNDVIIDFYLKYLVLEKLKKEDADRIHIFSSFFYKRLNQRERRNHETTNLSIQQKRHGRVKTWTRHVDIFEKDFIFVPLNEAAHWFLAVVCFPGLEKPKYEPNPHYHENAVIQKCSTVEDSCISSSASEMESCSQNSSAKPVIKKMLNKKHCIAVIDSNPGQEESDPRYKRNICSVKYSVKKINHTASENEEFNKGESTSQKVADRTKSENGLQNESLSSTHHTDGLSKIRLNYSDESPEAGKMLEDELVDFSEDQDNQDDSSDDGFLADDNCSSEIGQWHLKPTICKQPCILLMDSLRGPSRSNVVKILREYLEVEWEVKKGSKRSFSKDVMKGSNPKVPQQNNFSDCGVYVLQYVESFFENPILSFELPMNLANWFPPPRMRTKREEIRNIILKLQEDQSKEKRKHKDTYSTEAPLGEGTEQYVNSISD

[3] = biological target: T4, Sentrin-specific protease 8 (Homo sapiens, UniProt Q96LD8); assay type: functional;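 also: luminescence read-out of SENP8 inhibition, dose-response confirmation following an ultra-high-throughput screen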
T4 sequence (Q96LD8 whole entry): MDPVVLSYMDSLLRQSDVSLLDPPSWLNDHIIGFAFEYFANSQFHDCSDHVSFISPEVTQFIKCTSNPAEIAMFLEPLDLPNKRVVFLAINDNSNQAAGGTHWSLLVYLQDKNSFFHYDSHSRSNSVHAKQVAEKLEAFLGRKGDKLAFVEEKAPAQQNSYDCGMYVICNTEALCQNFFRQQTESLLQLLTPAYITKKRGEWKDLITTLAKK

[4] = biological target: Glucose-6-phosphate 1-dehydrogenase (Homo sapiens, UniProt P11413); test: inhibition of Homo sapiens G6PD, dose series – biochemical, fluorescence, selectivity assay for P. falciparum G6PD inhibitor project, dose response (AID 504792); assay type: functional
CHO = CHO cell viability loss, potency – luminescence, cytotoxicity control for TLR9-MyD88 binding inhibitor project, dose response (AID 588339); assay type: functional, cell-based, hamster; conditions: Cricetulus griseus;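 also: CHO cells stably coexpressing TLR9 and MyD88 fusions from primary screen; compound exposure lasted 48 hours before viability readout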
[5] = biological target: Heat shock protein HSP 90-alpha (Homo sapiens, UniProt P07900); assay type: functional, organism-based
Beta Lactamase = Beta Lactamase (Pseudomonas aeruginosa, UniProt Q932Y6); test: BLA reporter interference, concentration series – BLA reporter cells, FRET fluorescence, artefact control for TLR9-MyD88 binding inhibitor project, dose response (AID 588341); assay type: cell-based;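 also: cell based assay in CHO-K1 cells stably expressing beta-lactamase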
Protein skinhead-1 = biological target: T5, Protein skinhead-1 (Caenorhabditis elegans, UniProt P34707); assay type: functional
T5 sequence (P34707 whole entry): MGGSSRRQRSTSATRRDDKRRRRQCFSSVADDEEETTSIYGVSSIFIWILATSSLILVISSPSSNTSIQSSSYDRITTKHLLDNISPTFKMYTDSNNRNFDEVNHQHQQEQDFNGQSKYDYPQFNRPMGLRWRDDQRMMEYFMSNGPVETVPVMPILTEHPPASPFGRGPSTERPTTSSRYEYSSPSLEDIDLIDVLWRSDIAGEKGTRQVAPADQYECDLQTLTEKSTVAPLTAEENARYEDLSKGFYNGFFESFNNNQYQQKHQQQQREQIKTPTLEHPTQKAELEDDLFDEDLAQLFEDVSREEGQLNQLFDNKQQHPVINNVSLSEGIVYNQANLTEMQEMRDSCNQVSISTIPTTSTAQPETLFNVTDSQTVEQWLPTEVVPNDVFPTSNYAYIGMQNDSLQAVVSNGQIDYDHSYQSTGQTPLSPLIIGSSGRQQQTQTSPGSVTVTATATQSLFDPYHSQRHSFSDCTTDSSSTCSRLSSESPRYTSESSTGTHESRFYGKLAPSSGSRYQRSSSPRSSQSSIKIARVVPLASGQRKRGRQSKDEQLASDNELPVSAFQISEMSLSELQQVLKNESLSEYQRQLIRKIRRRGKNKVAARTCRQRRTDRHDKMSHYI

BJ [6] = test: BJ-TERT fibroblast viability loss – cell-based, RAS-independent, luminescence, dose response (AID 1933); assay type: functional; conditions: Homo sapiens
BJ [7] = test: cells; assay type: functional, cell-based; conditions: Homo sapiens
BJ [8] = test: BJ-TERT-LT-ST fibroblast viability loss – cell-based, RAS-independent, luminescence, dose response (AID 1935); assay type: functional; conditions: Homo sapiens;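 also: BJ fibroblasts immortalized with TERT plus LT and ST oncogenes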
[9] = DRD fibroblast viability loss – cell-based, non-viral oncogenic, luminescence, dose response (AID 1934); assay type: functional; conditions: Homo sapiens
BJ [10] = test: growth inhibition of engineered Ras-driven BJ cells – cell-based, alamar blue fluorescence, cherrypicked samples, dose response (AID 2631); assay type: functional; conditions: Homo sapiens;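 also: confirmatory dose-response assay in RAS-dependent BJ fibroblasts engineered with TERT, LT and ST, with cytotoxicity read by fluorescence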
INS1 = test: INS-1E survival protection against cytokine death – cell-based, luminescence, retest, dose response (AID 449756); assay type: functional; conditions: Rattus norvegicus;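 also: cell death triggered by IL-1 beta plus TNF-alpha plus IFN-gamma mixture; protective hits raise ATP signal compared with cytokine alone wells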
[11] = reduction of Shn3 3'UTR-driven luciferase in osteoblasts – cell-based, Clone20 osteoblasts, firefly luciferase, cherry-picked, dose response (AID 624132); assay type: functional;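 also: firefly luciferase luminescence from reporter carrying the Shn3 3'UTR in osteoblasts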
[12] = loss of viability in HepG2 cells – cell-based, CellTiter-Glo, cherry-picked, cytotoxicity control for Shn3 inhibitor project, dose response (AID 624134); assay type: functional
[13] = non-specific 3'UTR reporter inhibition in Clone20-Shn3RL – cell-based, Renilla luciferase, cherry-picked, counter-screen for Shn3 inhibitor project, dose response (AID 624133); assay type: functional
[14] = test system: Streptococcus sp. 'group A'; test: Streptococcus pyogenes SK(-)GAS viability under kanamycin – luminescence, BacTiterGlo, confirmation, counter-screen for streptokinase expression inhibitor project, dose response (AID 1900); assay type: functional, organism-based
Streptokinase A = biological target: T6, Streptokinase A (Streptococcus pyogenes serotype M1, UniProt P10520); test: viability-normalized secreted streptokinase activity reduction – plasminogen activation absorbance, OD405, dose response (AID 1914); assay type: functional, Streptococcus pyogenes M1 GAS;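 also: secreted streptokinase activity via plasminogen activation per viability signal from cell pellet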
T6 sequence (P10520 whole entry): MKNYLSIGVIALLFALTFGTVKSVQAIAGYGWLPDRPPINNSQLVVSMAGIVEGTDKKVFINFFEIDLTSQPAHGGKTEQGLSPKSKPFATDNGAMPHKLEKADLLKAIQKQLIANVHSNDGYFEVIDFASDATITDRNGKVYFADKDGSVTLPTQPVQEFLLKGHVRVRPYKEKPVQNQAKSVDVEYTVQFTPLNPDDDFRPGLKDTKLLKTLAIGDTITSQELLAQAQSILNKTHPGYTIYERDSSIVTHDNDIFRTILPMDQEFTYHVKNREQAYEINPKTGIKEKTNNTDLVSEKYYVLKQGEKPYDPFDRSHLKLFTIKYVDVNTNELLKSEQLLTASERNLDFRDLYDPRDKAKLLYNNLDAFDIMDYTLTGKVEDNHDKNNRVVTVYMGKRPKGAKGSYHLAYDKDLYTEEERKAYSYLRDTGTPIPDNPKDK

Streptococcus = test: GAS UMAA2166 growth inhibition – luminescence, BacTiterGlo, counter-screen for streptokinase expression inhibitor project, dose response (AID 1915); assay type: functional, organism-based;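 also: potency for reduction of bacterial viability or growth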

Beta Lactamase, sequence (Q932Y6 whole entry): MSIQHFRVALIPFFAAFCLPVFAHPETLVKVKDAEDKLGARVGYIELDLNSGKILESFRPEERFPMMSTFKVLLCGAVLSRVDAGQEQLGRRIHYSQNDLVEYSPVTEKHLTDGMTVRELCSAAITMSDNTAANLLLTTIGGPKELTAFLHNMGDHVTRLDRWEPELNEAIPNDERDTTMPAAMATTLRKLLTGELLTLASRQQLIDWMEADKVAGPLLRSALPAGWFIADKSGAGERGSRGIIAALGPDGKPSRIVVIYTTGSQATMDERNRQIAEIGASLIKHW
Glucose-6-phosphate 1-dehydrogenase, sequence (P11413 whole entry, the tested form may be a part): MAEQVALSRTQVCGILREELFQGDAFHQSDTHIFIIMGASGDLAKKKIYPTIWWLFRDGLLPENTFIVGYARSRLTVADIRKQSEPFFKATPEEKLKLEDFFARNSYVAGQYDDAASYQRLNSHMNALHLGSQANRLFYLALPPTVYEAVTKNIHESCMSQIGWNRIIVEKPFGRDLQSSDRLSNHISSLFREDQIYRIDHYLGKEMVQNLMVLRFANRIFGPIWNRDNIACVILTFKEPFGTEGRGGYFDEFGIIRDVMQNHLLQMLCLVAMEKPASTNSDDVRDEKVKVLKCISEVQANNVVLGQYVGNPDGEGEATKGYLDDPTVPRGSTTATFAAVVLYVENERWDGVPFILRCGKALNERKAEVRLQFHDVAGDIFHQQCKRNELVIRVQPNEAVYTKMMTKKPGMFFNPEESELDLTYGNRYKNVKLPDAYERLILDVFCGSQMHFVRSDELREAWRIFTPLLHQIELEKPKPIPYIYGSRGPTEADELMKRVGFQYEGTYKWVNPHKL

SMILES | GI50 (P388/ADR) | GI50 (SN12K1) | GI50 (P388) | IC50 (Caspase-3) | IC50 [1] | IC50 [2] | IC50 [3] | other results
N/C(S)=N/N=C/c1ncccc1O | 0.366 µM (active) | 0.382 µM (active) | 0.347 µM (active) |  |  |  |  | 
CCOC(=O)CCc1c(C)c2c(O)cc(O)cc2oc1=O | 14 µM (inactive) | > 94.2 µM (inactive) | 3.77 µM (inactive) |  |  |  |  | 
CCOC(=O)c1cc2ccc3ccccc3c2s1 |  |  |  | 49.5 µM (active) | 10.5 µM (active) | 70.9 µM (active) | > 100 µM (inactive) | 
Cc1ccc(Nc2ncnc3c2oc2ccccc23)cc1 |  |  |  | 28 µM (active) | 5.1 µM (active) | > 100 µM (inactive) | > 100 µM (inactive) | 
O=C(NN1C(=O)CSC1c1ccc(C(F)(F)F)cc1)c1ccncc1 (configuration not stated) | > 67.6 µM (inactive) | > 100 µM (inactive) | > 100 µM (inactive) |  |  |  |  | 
CC(=O)Nc1ccc2c(c1)Cc1cc(N3C(=O)C=CC3=O)ccc1-2 |  |  |  |  |  |  |  | IC50 [4]: > 80 µM (inactive); IC50 (CHO): 1.86 µM (active); AC50 [5]: 680 nM (active); IC50 (Beta Lactamase): 7.23 µM (active)
N/C(=N\O)N/N=C/c1ncccc1O | 1.52 µM (inactive) | 3.52 µM (inactive) | 1.67 µM (inactive) |  |  |  |  | 
CCCOC(=O)c1ccc(NC(=O)/C=C/c2cccs2)cc1 |  |  |  | 62.9 µM (active) | 12.9 µM (active) | 69.7 µM (active) | 70.2 µM (active) | IC50 (Protein skinhead-1): > 100 µM (inactive)
Cc1cccc(NC(=O)/C=C/c2ccc([N+](=O)[O-])s2)c1 |  |  |  |  |  |  |  | EC50 (BJ [6]): 4.95 µM (inconclusive); EC50 (BJ [7]): 15.7 µM (active); EC50 (BJ [8]): 4.67 µM (inconclusive); EC50 [9]: 4.68 µM (active); EC50 (BJ [10]): 531 nM (active); AC50 (INS1): 7.91 µM (active); AC50 [11]: 3.29 µM (active); AC50 [12]: 9.74 µM (active); AC50 [13]: 13.5 µM (active)
Nc1c(S(=O)(=O)O)cc(S(=O)(=O)O)c2ccc(/N=N/c3ccc(/C=C/c4ccc(/N=N/c5ccc6c(S(=O)(=O)O)cc(S(=O)(=O)O)c(N)c6c5O)cc4S(=O)(=O)O)c(S(=O)(=O)O)c3)c(O)c12 |  | > 100 µM (inactive) | 73.5 µM (inactive) |  |  |  |  | 
Cc1cccc(NCc2nc3ccccc3n2Cc2ccccc2)c1 |  |  |  | 44.6 µM (active) | 12.7 µM (active) | 37.7 µM (active) | 54.9 µM (active) | EC50 [14]: 8.81 µM (active); EC50 (Streptokinase A): > 150 µM (not active); EC50 (Streptococcus): > 150 µM (not active)
